Key:
CDC42 = test: Rho family GTPase activity assay (G-LISA); assay type: cell-based, human; conditions: Du145 cells, Lenti-141 MOI 10, 48 h
Description: (§1) Du145 cells transfected with NC or miR-141 oligos at the two doses and time intervals indicated were used in Western blotting. Indicated below are relative expression levels (normalized to respective GAPDH and compared to NC) of each protein determined by densitometric scanning of the individual bands. […] Bars, mean±SD. *P<0.05; **P<0.01. […] Du145 cells were co-transfected with NC or miR-141 oligos (30 nM) in combination with pcDNA3.1 (control) vector or pcDNA-RAC1 or pcDNA-CDC42 expression vector. After 48 h, cells were harvested for invasion assays. […] Du145 cells were infected with Lenti-141 or control lentivirus (MOI 10, 48 h) and then harvested to measure the Rho GTPase activities. Bars, mean±SD. *P<0.05. […] Du145 cells were transfected with the antisense oligos to NC or miR-141 (anti-141; 30 nM) and then used in invasion assays (FIG. 5E). In FIG. 5F and FIG. 5G Du145 cells were transfected with 10 nM of scramble siRNA control (siCon) or siRNAs targeting RAC1 (FIG. 5F) or CDC42 (FIG. 5G), either alone or in combination of anti-141 (30 nM). 48 h later, cells were harvested for invasion assays. Bars, mean±SD. *P<0.05; **P<0.01.
(§2) The activity of Rho family of small GTPases including RhoA, RAC1 and CDC42 were detected using G-LISA small G-protein activation assays per the manufacturer's instructions (Cytoskeleton, Inc., Denver, Colo.; catalog# BK135).

RAC1 = test: Rho family GTPase activity assay (G-LISA); assay type: cell-based, human; conditions: Du145 cells, Lenti-141 MOI 10, 48 h
Description: as §1, §2

RhoA = test: Rho family GTPase activity assay (G-LISA); assay type: cell-based, human; conditions: Du145 cells, Lenti-141 MOI 10, 48 h
Description: as §1, §2

PPC-1 cells = test: In vivo tumor regeneration assay; set-up: species or system NOD/SCID mice; conditions: miR-141 over-expression in bulk cells; 100,000 cells per injection
Description: (§3) Average % of CD44^+ cells (as determined by flow analysis; n=3-5) is indicated for each cell type (UD, undetectable). […] Purified CD44^+ Du145 cells were transfected with NC or miR-141 oligos (30 nM, 48 h) and then plated for clonal (1D & 1E) and sphere (1F) assays. Bars represent mean±SD. *, P<0.05; **, P<0.01. […] Shown are tumor images, cell numbers injected (100,000 cells per injection for all models), site of injection (s.c, subcutaneously) and days (d) when tumors were harvested. Tumor weight and incidences with corresponding P values are also indicated. ns, not significant. […] Purified CD44^+ HPCa202 cells were infected with Lenti-ctl or Lenti-141 (MOI 10, 72 h) and plated for clonal assay (1K) or sphere assays in Matrigel (1L & 1M). For 1st generation (1°) sphere assays, 1,000 cells per well were plated in triplicate for each group in 12-well plate and results scored in 11 days. For 2nd generation (2°), the 1° spheres were harvested, digested with Collagenase and Trypsin into single cells, 1,000 cells/well were plated, and results scored in 10 days. Quantification of the colonies was plotted (1 L; **P<0.01).
(§4) Du145, LNCaP, PC3, PPC-1, VCaP cells were obtained from […] and cultured in RPMI-1640 (Life Technologies, Carlsbad, Calif.) plus 7% fetal bovine serum (FBS) with the exception of VCaP, which were cultured in Dulbecco's Modified Eagles Medium (DMEM, Life Technologies) supplemented with 15% fetal bovine serum. Human xenograft prostate tumors, LAPC9 [bone metastasis; positive for androgen receptor (AR) and prostate-specific antigen (PSA)], LAPC4 (lymph node metastasis; AR+ and PSA+), and Du145 ([…]; AR− and PSA−) were maintained in NOD/SCID mice. These cell and xenograft lines, which have been routinely utilized (13, 14, 18, 20, 21, 23, 25, 33) and authenticated by institutional CCSG Cell Line Characterization Core using short tandem repeat (STR) analysis and checked to be free of mycoplasma contamination using the Agilent (Santa Clara, Calif.) MycoSensor QPCR Assay Kit (cat.#302107). NOD/SCID mice were produced mostly from breeding colonies with occasional purchases from the Jackson Laboratories and maintained in standard conditions according to the Institutional Guidelines. All animal experiments were approved by Institutional Animal Care and Use Committee.
(§5) As the CD44^+ prostate cancer cells are prominently devoid of miR-141, its expression in CD44^+ prostate cancer cells was restored and then cancer stem cell assays including stringent clonal (holoclone) and single cell-derived sphere-formation assays (13, 14, 23, 25, 33) were performed. […]

CD44+ LAPC9 cells = test: In vivo tumor regeneration assay; set-up: species or system NOD/SCID mice; conditions: enforced miR-141 expression; 100,000 cells per injection
Description: as §3, §4, §5

CD44+ Du145 cells = test: In vivo tumor regeneration assay; set-up: species or system NOD/SCID mice; conditions: enforced miR-141 expression; 100,000 cells per injection
Description: as §3, §4, §5

bulk Du145 cells = test: In vivo tumor regeneration assay; set-up: species or system NOD/SCID mice; conditions: miR-141 over-expression in bulk cells; 100,000 cells per injection
Description: as §3, §4, §5

miR-141: miR-141 mirVana mimics (Life Technologies); microRNA-141 oligonucleotide may have SEQ ID NO: 1; in some experiments over-expressed by lentiviral vectors (UAACACUGUCUGGUAAAGAUGG; listed as RNA, further chemistry not given here) [miR-141 mirVana mimics (Life Technologies); in some experiments over-expressed by lentiviral vectors]
GTPase activity of CDC42 (CDC42): suppressed | GTPase activity of RAC1 (RAC1): suppressed | GTPase activity of RhoA (RhoA): not | tumor regeneration (PPC-1 cells): suppressed tumor regeneration | tumor growth and/or tumor incidence (CD44+ LAPC9 cells): significantly suppressed tumor growth and/or reduced tumor incidence | tumor growth and/or tumor incidence (CD44+ Du145 cells): significantly suppressed tumor growth and/or reduced tumor incidence | tumor regeneration (bulk Du145 cells): suppressed tumor regeneration
